From paper PMC11192564 (Cell metabolism, 2023) come the findings set out here.

The target of experiment [1] is T1, Samtor (Mus musculus, UniProt Q8BXK4).
T1 sequence (Q8BXK4 1-403): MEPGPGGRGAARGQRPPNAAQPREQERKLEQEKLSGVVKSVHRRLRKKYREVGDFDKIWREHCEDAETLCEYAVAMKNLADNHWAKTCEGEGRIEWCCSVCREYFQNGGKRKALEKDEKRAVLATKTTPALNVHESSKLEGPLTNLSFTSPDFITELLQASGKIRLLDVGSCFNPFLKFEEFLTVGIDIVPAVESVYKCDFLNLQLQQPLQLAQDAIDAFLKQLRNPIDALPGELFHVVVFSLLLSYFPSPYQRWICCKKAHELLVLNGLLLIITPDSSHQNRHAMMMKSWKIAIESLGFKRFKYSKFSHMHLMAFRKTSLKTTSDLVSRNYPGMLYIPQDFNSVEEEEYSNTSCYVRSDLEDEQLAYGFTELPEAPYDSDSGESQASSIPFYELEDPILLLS
The experiment can be described thus: microscale thermophoresis. Format: binding. In general terms: In MST a laser heats a spot of the sample, and binding alters the fluorescence response.

The target in experiment [2] is T2, SAMTOR (Homo sapiens, UniProt Q1RMZ1).
T2 sequence (Q1RMZ1 1-405): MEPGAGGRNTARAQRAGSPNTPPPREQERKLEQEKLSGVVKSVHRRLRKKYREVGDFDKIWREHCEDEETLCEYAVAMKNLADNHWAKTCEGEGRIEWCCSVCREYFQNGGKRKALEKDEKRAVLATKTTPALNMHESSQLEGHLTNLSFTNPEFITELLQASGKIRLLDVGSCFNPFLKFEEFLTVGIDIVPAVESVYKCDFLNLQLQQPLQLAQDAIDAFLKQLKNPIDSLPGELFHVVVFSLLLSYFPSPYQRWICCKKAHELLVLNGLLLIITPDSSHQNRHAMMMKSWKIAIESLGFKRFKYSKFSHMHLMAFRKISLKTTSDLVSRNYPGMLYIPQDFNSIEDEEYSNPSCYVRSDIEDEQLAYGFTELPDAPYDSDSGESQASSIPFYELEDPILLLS
Nature of the experiment: microscale thermophoresis. It counts as binding.

Molecules are shown by their SMILES.

By Kd is commonly meant a measure of binding affinity in units of concentration. A higher Kd goes with lower affinity.

Consider `C[S+](CC[C@H](N)C(=O)[O-])C[C@H]1O[C@@H](n2cnc3c(N)ncnc32)[C@H](O)[C@@H]1O` (some centres unmarked) [SAM], for which the figures for the dissociation constant (Kd) on Samtor [1] and at SAMTOR [2] were about 10 µM and about 7 µM, respectively.
